Measured values reported in ChEMBL document CHEMBL5316370, “Laeviganoids A-T, ent-Clerodane-Type Diterpenoids from Croton laevigatus” (2023).
Active and inactive are the calls of the source. No cut-off for these calls is given here.

Tests used:
RAW264.7 [1] = experiment: Anti-inflammatory activity against IL-4/IL-13 stimulated mouse RAW264.7 cells assessed as inhibition of IL-10 secretion at 20 uM incubated for 48 hrs by ELISA method; type: functional, cell-based
RAW264.7 [2] = experiment: Anti-inflammatory activity against IL-4/IL-13 stimulated mouse RAW264.7 cells assessed as upregulation of TNFalpha secretion at 20 uM incubated for 48 hrs by ELISA method; type: functional, cell-based
RAW264.7 [3] = experiment: Anti-inflammatory activity against IL-4/IL-13 stimulated mouse RAW264.7 cells assessed as upregulation of TNFalpha secretion at 5 to 20 uM incubated for 48 hrs by ELISA method relative to control; type: functional; details: dose 5-20 µM
RAW264.7 [4] = experiment: Anti-inflammatory activity against IL-4/IL-13 stimulated mouse RAW264.7 cells assessed as inhibition of IL-10 secretion at 5 to 20 uM incubated for 48 hrs by ELISA method relative to control; type: functional; details: dose 5-20 µM

Row | Structure (SMILES) | inhibition (RAW264.7 [1]) | Activity (RAW264.7 [2]) | Activity (RAW264.7 [3]) [%] | inhibition (INH) (RAW264.7 [4]) [%]
1 | C[C@]12C[C@@H](c3ccoc3)OC(=O)[C@@H]1CC[C@]1(C)[C@@H]2CC[C@H](Cl)[C@@]1(C)O | Active |  |  | 
2 | COC(=O)[C@@H]1CC[C@]2(C)[C@H](CC[C@@H](O)[C@]2(C)OC)[C@@]1(C)CC(=O)c1ccoc1 | Active | Active |  | 
3 | C[C@]12C(=CC[C@]3(C)[C@@H]1CC[C@@H](O)[C@]3(C)O)C(=O)O[C@H](c1ccoc1)[C@H]2OC(=O)c1ccccc1 | Active |  |  | 
4 | C[C@@H]1CC[C@]2(C)[C@H](CCC(=O)[C@H]2C)[C@@]1(C)CCc1ccoc1 | Active | Active |  | 
5 | COC(=O)[C@@H]1CC[C@]2(C)[C@H](CC[C@@H](O)[C@]2(C)O)[C@@]1(C)CC(=O)c1ccoc1 | Active | Active |  | 
6 | CC(=O)O[C@@H]1[C@@H](c2ccoc2)OC(=O)[C@@H]2CC[C@]3(C)[C@H](CC[C@@H](O)[C@]3(C)O)[C@@]12C | Active |  |  | 
7 | C[C@@H]1CC[C@]2(C)[C@H](CCC(=O)[C@H]2C)[C@@]1(C)CC(=O)c1ccoc1 | Active |  |  | 
8 | C[C@]12C[C@@H](c3ccoc3)OC(=O)[C@@H]1CC[C@]1(C)[C@@H]2CCC(=O)[C@@]1(C)O | Active |  |  | 
9 | C[C@]12C[C@@H](c3ccoc3)OC(=O)[C@@H]1CC[C@]1(C)[C@@H]2CCC(=O)[C@]1(C)O | Active |  |  | 
10 | C=C1[C@H](O)CC[C@@H]2[C@@](C)(CC(=O)c3ccoc3)[C@H](C)CC[C@@]12C | Active |  |  | 
11 | C[C@]1(CCc2ccoc2)[C@H](CO)CC[C@]2(C)[C@@H]1CC[C@@H](O)[C@]2(C)O | Active |  |  | 
12 | C[C@@H]1CC[C@]2(C)[C@H](CC[C@@H](O)[C@]2(C)O)[C@@]1(C)CC(=O)c1ccoc1 | Active |  |  | 
13 | CC1=CC(=O)O[C@@H]1C[C@@]1(C)[C@H](C)CC[C@@]2(C)C(C)=CCC[C@H]12 | Active |  |  | 
14 | CO[C@@]1(C)[C@H](O)CC[C@@H]2[C@@](C)(C[C@H](O)c3ccoc3)[C@H](C)CC[C@]21C | Active | Active | >40 | >40
15 | C=C1[C@H](O)CC[C@@H]2[C@@](C)(C[C@H](O)c3ccoc3)[C@H](C)CC[C@@]12C | Active |  |  | 
16 | C[C@]1(C[C@H](O)c2ccoc2)[C@H](CO)CC[C@]2(C)[C@@H]1CC[C@@H](O)[C@]2(C)O | Active | Active |  | 
17 | CC1=CC(=O)O[C@@H]1C[C@@]1(C)[C@H](C)CC[C@@]2(C)C(C)=CC(=O)C[C@H]12 | Active |  |  | 
18 | C/C(=C\CO)CC[C@@]1(C)[C@H](C)CC[C@@]2(C)C(CO)=CCC[C@H]12 | Active | Active | >40 | >40
19 | CO[C@@]1(C)[C@H](O)CC[C@@H]2[C@@]3(C)[C@H](OC(=O)c4ccccc4)[C@@H](c4ccoc4)OC(=O)[C@@H]3CC[C@]21C | Active | Active | >40 | >40
20 | C[C@@H]1C(=O)CC[C@@H]2[C@@](C)(CCc3ccoc3)[C@H](CO)CC[C@]21C | Active |  |  | 
21 | CC1=CC(=O)O[C@H]1C[C@@]1(C)[C@H](C)CC[C@@]2(C)C(C)=CCC[C@H]12 | Active |  |  | 
22 | CCO[C@@]1(C)[C@H](O)CC[C@@H]2[C@@](C)(CC(=O)c3ccoc3)[C@H](C)CC[C@]21C | Active | Active | >40 | >40
23 | C[C@@H]1CC[C@]2(C)[C@H](CC[C@@H](O)[C@]2(C)O)[C@@]1(C)CCc1ccoc1 | Active | Active |  | 
24 | C[C@]12[C@H](OC(=O)c3ccccc3)[C@@H](c3ccoc3)OC(=O)[C@@H]1CC[C@]1(C)[C@@H]2CC[C@@H](O)[C@]1(C)O | Active |  |  | 
25 | CC1=CCC[C@@H]2[C@@]3(C)C[C@@H](c4ccoc4)OC(=O)[C@@H]3CC[C@@]12C | Active |  |  | 
26 | CC(=O)O[C@@H]1[C@@H](c2ccoc2)OC(=O)[C@@H]2CC[C@@]3(C)C(C)C(=O)CC[C@@H]3[C@@]12C (stereo partly drawn) | Active |  |  | 
